Assays:
SSAT = assay: Hepatic, pancreatic and renal SSAT activity in syngenic and metallothionein-SSAT mice after analogue; assay type: in vivo, mouse; conditions: 24 h before sacrifice
Procedure: (§1) α-methylspermidine, Bis-α-methylspermine and α-methylspermine were administered in saline. […] The data are expressed as means ±S.D. For statistical analysis, the two-tailed Student's t test was used.

[1] = tested on: syngenic and metallothionein-SSAT mice; assay: Hepatic, pancreatic and renal polyamine concentration in syngenic and metallothionein-SSAT mice after analogue; assay type: in vivo, mouse; conditions: Sg (syngenic) mice, 24 h before sacrifice
Procedure: as §1

[2] = Tg (transgenic) mice, 12.5 mg/kg
[3] = Tg (transgenic) mice, 37.5 mg/kg

Which results are given for CC(N)CCNCCCCNCCC(C)N (stereo not drawn) [bis-α-methylspermine, 1,12-dimethylspermine]?
SSAT activity, Kidney (SSAT; Sg (syngenic) mice, 12.5 mg/kg): 0.32 ± 0.14 ^++ pmoles/10 min/ tissue wet weight; SSAT activity, Pancreas (SSAT; Sg (syngenic) mice, 12.5 mg/kg): 3.38 pmoles/10 min/ tissue wet weight; SSAT activity, Kidney (SSAT; Sg (syngenic) mice, 25 mg/kg): 0.58 ± 0.43 ^+ pmoles/10 min/ tissue wet weight; SSAT activity, Pancreas (SSAT; Sg (syngenic) mice, 25 mg/kg): 4.23 pmoles/10 min/ tissue wet weight; SSAT activity, Kidney (SSAT; Sg (syngenic) mice, 37.5 mg/kg): 0.33 ± 0.14 ^+ pmoles/10 min/ tissue wet weight; SSAT activity, Pancreas (SSAT; Sg (syngenic) mice, 37.5 mg/kg): 3.18 pmoles/10 min/ tissue wet weight; SSAT activity, Kidney (SSAT; Sg (syngenic) mice, 50 mg/kg): 0.60 ± 0.19 ^+ pmoles/10 min/ tissue wet weight; SSAT activity, Pancreas (SSAT; Sg (syngenic) mice, 50 mg/kg): 8.44 pmoles/10 min/ tissue wet weight; SSAT activity, Kidney (SSAT; [2]): 0.72 ± 0.24 pmoles/10 min/ tissue wet weight; SSAT activity, Liver (SSAT; [2]): 6.56 pmoles/10 min/ tissue wet weight; SSAT activity, Pancreas (SSAT; [2]): 34.11 pmoles/10 min/ tissue wet weight; SSAT activity, Kidney (SSAT; Tg (transgenic) mice, 25 mg/kg): 1.48 ± 0.92 pmoles/10 min/ tissue wet weight; SSAT activity, Liver (SSAT; Tg (transgenic) mice, 25 mg/kg): 9.08 pmoles/10 min/ tissue wet weight; SSAT activity, Pancreas (SSAT; Tg (transgenic) mice, 25 mg/kg): 65.20 pmoles/10 min/ tissue wet weight; SSAT activity, Kidney (SSAT; [3]): 8.04 ± 14.36 pmoles/10 min/ tissue wet weight; SSAT activity, Liver (SSAT; [3]): 55.79 pmoles/10 min/ tissue wet weight; SSAT activity, Pancreas (SSAT; [3]): 124.95 pmoles/10 min/ tissue wet weight; SSAT activity, Kidney (SSAT; Tg (transgenic) mice, 50 mg/kg): 1.24 ± 0.39 pmoles/10 min/ tissue wet weight; SSAT activity, Liver (SSAT; Tg (transgenic) mice, 50 mg/kg): 13.11 pmoles/10 min/ tissue wet weight; SSAT activity, Pancreas (SSAT; Tg (transgenic) mice, 50 mg/kg): 62.05 pmoles/10 min/ tissue wet weight; hepatic concentration, Bis-α-Methylspermine ([1]; 12.5 mg/kg): 159.88 pmoles/mg tissue wet weight; hepatic polyamine concentration, N^8-Acetylspermidine ([1]; 12.5 mg/kg): 0.75 pmoles/mg tissue wet weight; hepatic polyamine concentration, Putrescine ([1]; 12.5 mg/kg): 92.42 pmoles/mg tissue wet weight; hepatic polyamine concentration, Spermidine ([1]; 12.5 mg/kg): 927.28 pmoles/mg tissue wet weight; hepatic polyamine concentration, Spermine ([1]; 12.5 mg/kg): 708.04 pmoles/mg tissue wet weight; pancreatic concentration, Bis-α-Methylspermine ([1]; 12.5 mg/kg): 259.30 ± 10.04 pmoles/mg tissue wet weight; pancreatic polyamine concentration, N^8-Acetylspermidine ([1]; 12.5 mg/kg): 60.41 pmoles/mg tissue wet weight; pancreatic polyamine concentration, Putrescine ([1]; 12.5 mg/kg): 298.55 ± 75.14 *^+ pmoles/mg tissue wet weight; pancreatic polyamine concentration, Spermidine ([1]; 12.5 mg/kg): 6575.15 ± 614.21 ^+ pmoles/mg tissue wet weight; pancreatic polyamine concentration, Spermine ([1]; 12.5 mg/kg): 981.28 ± 201.81 ^+ pmoles/mg tissue wet weight; renal concentration, Bis-α-Methylspermine ([1]; 12.5 mg/kg): 259.30 pmoles/mg tissue wet weight; renal polyamine concentration, N^1-Acetylspermidine ([1]; 12.5 mg/kg): 33.17 pmoles/mg tissue wet weight; renal polyamine concentration, N^8-Acetylspermidine ([1]; 12.5 mg/kg): 17.62 ± 6.43 pmoles/mg tissue wet weight; renal polyamine concentration, Putrescine ([1]; 12.5 mg/kg): 142.47 pmoles/mg tissue wet weight; renal polyamine concentration, Spermidine ([1]; 12.5 mg/kg): 246.29 pmoles/mg tissue wet weight; renal polyamine concentration, Spermine ([1]; 12.5 mg/kg): 456.65 pmoles/mg tissue wet weight; hepatic concentration, Bis-α-Methylspermine ([1]; 25 mg/kg): 317.22 pmoles/mg tissue wet weight; hepatic polyamine concentration, N^8-Acetylspermidine ([1]; 25 mg/kg): 2.38 pmoles/mg tissue wet weight; hepatic polyamine concentration, Putrescine ([1]; 25 mg/kg): 73.69 pmoles/mg tissue wet weight; hepatic polyamine concentration, Spermidine ([1]; 25 mg/kg): 879.17 pmoles/mg tissue wet weight; hepatic polyamine concentration, Spermine ([1]; 25 mg/kg): 699.86 pmoles/mg tissue wet weight; pancreatic concentration, Bis-α-Methylspermine ([1]; 25 mg/kg): 343.17 ± 35.11 pmoles/mg tissue wet weight; pancreatic polyamine concentration, Putrescine ([1]; 25 mg/kg): 467.21 ± 419.85^++ pmoles/mg tissue wet weight; pancreatic polyamine concentration, Spermidine ([1]; 25 mg/kg): 5733.90 ± 300.80 ^+ pmoles/mg tissue wet weight; pancreatic polyamine concentration, Spermine ([1]; 25 mg/kg): 528.55 ± 241.57 ^+ pmoles/mg tissue wet weight; renal concentration, Bis-α-Methylspermine ([1]; 25 mg/kg): 343.17 pmoles/mg tissue wet weight; renal polyamine concentration, N^1-Acetylspermidine ([1]; 25 mg/kg): 28.39 pmoles/mg tissue wet weight; renal polyamine concentration, N^8-Acetylspermidine ([1]; 25 mg/kg): 17.70 ± 10.63 pmoles/mg tissue wet weight; renal polyamine concentration, Putrescine ([1]; 25 mg/kg): 87.46 pmoles/mg tissue wet weight; renal polyamine concentration, Spermidine ([1]; 25 mg/kg): 257.13 pmoles/mg tissue wet weight; renal polyamine concentration, Spermine ([1]; 25 mg/kg): 459.99 pmoles/mg tissue wet weight; hepatic concentration, Bis-α-Methylspermine ([1]; 37.5 mg/kg): 283.40 pmoles/mg tissue wet weight; hepatic polyamine concentration, N^1-Acetylspermidine ([1]; 37.5 mg/kg): 14.57 pmoles/mg tissue wet weight; hepatic polyamine concentration, N^8-Acetylspermidine ([1]; 37.5 mg/kg): 2.10 pmoles/mg tissue wet weight; hepatic polyamine concentration, Putrescine ([1]; 37.5 mg/kg): 96.27 pmoles/mg tissue wet weight; hepatic polyamine concentration, Spermidine ([1]; 37.5 mg/kg): 772.68 pmoles/mg tissue wet weight; hepatic polyamine concentration, Spermine ([1]; 37.5 mg/kg): 754.59 pmoles/mg tissue wet weight; pancreatic concentration, Bis-α-Methylspermine ([1]; 37.5 mg/kg): 415.40 ± 92.86 pmoles/mg tissue wet weight; pancreatic polyamine concentration, N^1-Acetylspermidine ([1]; 37.5 mg/kg): 123.67 pmoles/mg tissue wet weight; pancreatic polyamine concentration, N^8-Acetylspermidine ([1]; 37.5 mg/kg): 55.34 pmoles/mg tissue wet weight; pancreatic polyamine concentration, Putrescine ([1]; 37.5 mg/kg): 233.06 ± 45.81 *^+ pmoles/mg tissue wet weight; pancreatic polyamine concentration, Spermidine ([1]; 37.5 mg/kg): 5997.63 ± 24.26 ^+ pmoles/mg tissue wet weight; pancreatic polyamine concentration, Spermine ([1]; 37.5 mg/kg): 708.66 ± 179.23 ^++ pmoles/mg tissue wet weight; renal concentration, Bis-α-Methylspermine ([1]; 37.5 mg/kg): 415.40 pmoles/mg tissue wet weight; renal polyamine concentration, N^1-Acetylspermidine ([1]; 37.5 mg/kg): 28.73 pmoles/mg tissue wet weight; renal polyamine concentration, N^8-Acetylspermidine ([1]; 37.5 mg/kg): 15.95 ± 6.92 pmoles/mg tissue wet weight; renal polyamine concentration, Putrescine ([1]; 37.5 mg/kg): 93.95 pmoles/mg tissue wet weight; renal polyamine concentration, Spermidine ([1]; 37.5 mg/kg): 289.83 pmoles/mg tissue wet weight; renal polyamine concentration, Spermine ([1]; 37.5 mg/kg): 513.58 pmoles/mg tissue wet weight; hepatic concentration, Bis-α-Methylspermine ([1]; 50 mg/kg): 379.77 pmoles/mg tissue wet weight; hepatic polyamine concentration, N^8-Acetylspermidine ([1]; 50 mg/kg): 8.72 pmoles/mg tissue wet weight; hepatic polyamine concentration, Putrescine ([1]; 50 mg/kg): 52.40 pmoles/mg tissue wet weight; hepatic polyamine concentration, Spermidine ([1]; 50 mg/kg): 688.44 pmoles/mg tissue wet weight; hepatic polyamine concentration, Spermine ([1]; 50 mg/kg): 687.71 pmoles/mg tissue wet weight; pancreatic concentration, Bis-α-Methylspermine ([1]; 50 mg/kg): 459.26 ± 18.65 pmoles/mg tissue wet weight

— patent US7202280B2, “Methods for the treatment and prevention of pancreatitis and for induction of liver regeneration” (priority 2002, dated 2007)
